The values that follow come from article PMC3371024, “A Novel 5-Enolpyruvylshikimate-3-Phosphate Synthase Shows High Glyphosate Tolerance in Escherichia coli and Tobacco Plants” (PLoS ONE, 2012).

The test system of test [1] is T1, AM79 EPSPS.
T1 construct: gene aroA; aroA in pET-28a, stop codon removed so two His tags (N- and C-terminal), E. coli Rosetta (DE3), Ni-NTA purified; printed residues Ala107, Phe114, Ala355, His356, Glu357
Put plainly: Pi release (Lanzetta reagent, […] nm); Michaelis-Menten fit. In kind it is biochemical, uncultured soil bacterium. The settings on record: 1 mM S3P, no glyphosate, 50 mM HEPES-NaOH pH 7.0, 100 mM KCl, 2 mM DTT, 25 °C; read-out: K m (PEP; μM).

The next test deals with T2, G2 EPSPS (Pseudomonas fluorescens, UniProt A1Z0H6).
T2 construct: gene aroA
Nature of the test: Pi release (Lanzetta reagent, […] nm); Km(obs) of PEP versus glyphosate. In kind it is biochemical. The settings on record: 1 mM S3P, varied PEP, 50 mM HEPES-NaOH pH 7.0, 100 mM KCl, 2 mM DTT, 25 °C; competitive with PEP; read-out: K i (glyphosate; μM).

Test [2] concerns the target T1, AM79 EPSPS. The description is as above. The settings on record: 1 mM S3P, varied PEP, 50 mM HEPES-NaOH pH 7.0, 100 mM KCl, 2 mM DTT, 25 °C; competitive with PEP; read-out: K i (glyphosate; μM). In kind it is biochemical, uncultured soil bacterium.
In the next test the target is T3, A1501 EPSPS (Stutzerimonas stutzeri, UniProt A4VLZ3).
T3 construct: gene aroA
The test is described as above. Format: biochemical. The settings on record: 1 mM S3P, varied PEP, 50 mM HEPES-NaOH pH 7.0, 100 mM KCl, 2 mM DTT, 25 °C; competitive with PEP; read-out: K i (glyphosate; μM).

`C=C(OP(=O)(O)O)C(=O)O` [PEP]: the Km in the test on AM79 EPSPS [1] came out at 14.59 ± 0.11 µM.
For `O=C(O)CNCP(=O)(O)O` [glyphosate, N-phosphonomethyl glycine], the Ki at G2 EPSPS was determined as 44.7 ± 5.2 µM; on AM79 EPSPS [2], 154 ± 4.06 µM; on A1501 EPSPS, 467 ± 30.2 µM.
